According to ChEMBL document CHEMBL2412968, “Tetrazole-based deoxyamodiaquines: synthesis, ADME/PK profiling and pharmacological evaluation as potential antimalarial agents” (Bioorg Med Chem, 2013):
In brackets after ≈: the same amount, converted by molar mass.

System: Plasmodium falciparum
Assay: Antiplasmodial activity chloroquine-resistant Plasmodium falciparum W2 using YOYO-1 staining after 48 hrs by FACS analysis
Type: functional, organism-based
Settings: W2, 48 h
With `CN(C)C(c1cccc(Nc2ccnc3cc(Cl)ccc23)c1)c1nnnn1C(C)(C)C` (centres undefined) the IC50 was 227 nM. `CC(C)(C)n1nnnc1C(c1cccc(Nc2ccnc3cc(Cl)ccc23)c1)N1CCCCC1` (centres undefined) gave an IC50 of 82 nM. `CN(C)C(c1ccc(Nc2ccnc3cc(Cl)ccc23)cc1)c1nnnn1C(C)(C)C` (centres undefined) gave an IC50 of 40 nM. In the case of `Clc1ccc2c(Nc3cccc(C(c4nnn[nH]4)N4CCCC4)c3)ccnc2c1` (centres undefined), the IC50 is reported as 181 nM. `CN(C)C(c1cccc(Nc2ccnc3cc(Cl)ccc23)c1)c1nnn[nH]1` (centres undefined) gave an IC50 of 1170 nM. `CCN(CC)C(c1cccc(Nc2ccnc3cc(Cl)ccc23)c1)c1nnnn1CCN1CCOCC1` (centres undefined) gave an IC50 of 194 nM. In the case of `Clc1ccc2c(Nc3cccc(C(c4nnnn4CCN4CCOCC4)N4CCCC4)c3)ccnc2c1` (centres undefined), the IC50 is reported as 3390 nM. `CCN(CC)C(c1cccc(Nc2ccnc3cc(Cl)ccc23)c1)c1nnn[nH]1` (centres undefined) gave an IC50 of 475 nM. Compound `Clc1ccc2c(Nc3cccc(C(c4nnn[nH]4)N4CCCCC4)c3)ccnc2c1` (centres undefined) has an IC50 of 487 nM.

System: Plasmodium falciparum
Assay: Antiplasmodial activity chloroquine-resistant Plasmodium falciparum K1 infected in human A+ erythrocytes assessed as reduction of [3H]hypoxanthine incorporation after 24 hrs by scintillation counting
Type: functional, organism-based
Settings: not given
`CN(C)C(c1cccc(Nc2ccnc3cc(Cl)ccc23)c1)c1nnnn1C(C)(C)C` (centres undefined) showed an IC50 of 150 nM. `CC(C)(C)n1nnnc1C(c1cccc(Nc2ccnc3cc(Cl)ccc23)c1)N1CCCCC1` (centres undefined) showed an IC50 of 170 nM. With `CN(C)C(c1ccc(Nc2ccnc3cc(Cl)ccc23)cc1)c1nnnn1C(C)(C)C` (centres undefined) the IC50 was 12 nM. For `Clc1ccc2c(Nc3cccc(C(c4nnn[nH]4)N4CCCC4)c3)ccnc2c1` (centres undefined), the IC50 was 49 nM. In the case of `CN(C)C(c1cccc(Nc2ccnc3cc(Cl)ccc23)c1)c1nnn[nH]1` (centres undefined), the IC50 is reported as 2980 nM. With `CCN(CC)C(c1cccc(Nc2ccnc3cc(Cl)ccc23)c1)c1nnnn1CCN1CCOCC1` (centres undefined) the IC50 was 245 nM. In the case of `Clc1ccc2c(Nc3cccc(C(c4nnnn4CCN4CCOCC4)N4CCCC4)c3)ccnc2c1` (centres undefined), the IC50 is reported as 310 nM. In the case of `CCN(CC)C(c1cccc(Nc2ccnc3cc(Cl)ccc23)c1)c1nnn[nH]1` (centres undefined), the IC50 is reported as 54 nM. `Clc1ccc2c(Nc3cccc(C(c4nnn[nH]4)N4CCCCC4)c3)ccnc2c1` (centres undefined) gave an IC50 of 1260 nM.

System: Plasmodium falciparum
Assay: Antiplasmodial activity chloroquine-sensitive Plasmodium falciparum 3D7 infected in human A+ erythrocytes assessed as reduction of [3H]hypoxanthine incorporation after 24 hrs by scintillation counting
Type: functional, organism-based
Settings: not given
`CN(C)C(c1cccc(Nc2ccnc3cc(Cl)ccc23)c1)c1nnnn1C(C)(C)C` (centres undefined) showed an IC50 of 52 nM. Compound `CC(C)(C)n1nnnc1C(c1cccc(Nc2ccnc3cc(Cl)ccc23)c1)N1CCCCC1` (centres undefined) has an IC50 of 50 nM. In the case of `CN(C)C(c1ccc(Nc2ccnc3cc(Cl)ccc23)cc1)c1nnnn1C(C)(C)C` (centres undefined), the IC50 is reported as 12 nM. `Clc1ccc2c(Nc3cccc(C(c4nnn[nH]4)N4CCCC4)c3)ccnc2c1` (centres undefined) showed an IC50 of 1100 nM. In the case of `CN(C)C(c1cccc(Nc2ccnc3cc(Cl)ccc23)c1)c1nnn[nH]1` (centres undefined), the IC50 is reported as 487 nM. Work on `CCN(CC)C(c1cccc(Nc2ccnc3cc(Cl)ccc23)c1)c1nnnn1CCN1CCOCC1` (centres undefined) yielded an IC50 of 30 nM. Compound `Clc1ccc2c(Nc3cccc(C(c4nnnn4CCN4CCOCC4)N4CCCC4)c3)ccnc2c1` (centres undefined) has an IC50 of 220 nM. Work on `CCN(CC)C(c1cccc(Nc2ccnc3cc(Cl)ccc23)c1)c1nnn[nH]1` (centres undefined) yielded an IC50 of 164 nM. Work on `Clc1ccc2c(Nc3cccc(C(c4nnn[nH]4)N4CCCCC4)c3)ccnc2c1` (centres undefined) yielded an IC50 of 286 nM.

System: not listed separately
Assay: physchem
Settings: phosphate buffered saline, pH 7.4
`CN(C)C(c1cccc(Nc2ccnc3cc(Cl)ccc23)c1)c1nnnn1C(C)(C)C` (centres undefined) gave a solubility kinetic at 2 h of 7.3 µM (≈ 3.18 µg/mL). `CC(C)(C)n1nnnc1C(c1cccc(Nc2ccnc3cc(Cl)ccc23)c1)N1CCCCC1` (centres undefined) gave a solubility kinetic at 2 h of under 5 µM. Work on `Clc1ccc2c(Nc3cccc(C(c4nnn[nH]4)N4CCCC4)c3)ccnc2c1` (centres undefined) yielded a solubility kinetic at 2 h of 150 µM (≈ 60.9 µg/mL). With `CN(C)C(c1cccc(Nc2ccnc3cc(Cl)ccc23)c1)c1nnn[nH]1` (centres undefined) the solubility kinetic at 2 h was 72.6 µM (≈ 27.6 µg/mL). With `CCN(CC)C(c1cccc(Nc2ccnc3cc(Cl)ccc23)c1)c1nnn[nH]1` (centres undefined) the solubility kinetic at 2 h was 149 µM (≈ 60.8 µg/mL). `Clc1ccc2c(Nc3cccc(C(c4nnn[nH]4)N4CCCCC4)c3)ccnc2c1` (centres undefined) gave a solubility kinetic at 2 h of 122 µM (≈ 51.2 µg/mL).

System: not listed separately
Assay: physchem
Settings: 0.01 M HCl, pH 2
`CN(C)C(c1cccc(Nc2ccnc3cc(Cl)ccc23)c1)c1nnnn1C(C)(C)C` (centres undefined) gave a solubility kinetic at 2 h of over 200 µM. With `CC(C)(C)n1nnnc1C(c1cccc(Nc2ccnc3cc(Cl)ccc23)c1)N1CCCCC1` (centres undefined) the solubility kinetic at 2 h was over 200 µM. Work on `Clc1ccc2c(Nc3cccc(C(c4nnn[nH]4)N4CCCC4)c3)ccnc2c1` (centres undefined) yielded a solubility kinetic at 2 h of over 200 µM. `CN(C)C(c1cccc(Nc2ccnc3cc(Cl)ccc23)c1)c1nnn[nH]1` (centres undefined) gave a solubility kinetic at 2 h of over 200 µM. With `CCN(CC)C(c1cccc(Nc2ccnc3cc(Cl)ccc23)c1)c1nnn[nH]1` (centres undefined) the solubility kinetic at 2 h was over 200 µM. For `Clc1ccc2c(Nc3cccc(C(c4nnn[nH]4)N4CCCCC4)c3)ccnc2c1` (centres undefined), the solubility kinetic at 2 h was over 200 µM.
